Experimental data published in ChEMBL document CHEMBL4680251, “Discovery of a 2-pyridinyl urea-containing compound YD57 as a potent inhibitor of apoptosis signal-regulating kinase 1 (ASK1)” (Eur J Med Chem, 2020).

Key:
[1] = molecular target: T1, Mitogen-activated protein kinase kinase kinase 6 (Homo sapiens, UniProt O95382); experiment: Inhibition of ASK2 (unknown origin)
T1 sequence (O95382 whole entry): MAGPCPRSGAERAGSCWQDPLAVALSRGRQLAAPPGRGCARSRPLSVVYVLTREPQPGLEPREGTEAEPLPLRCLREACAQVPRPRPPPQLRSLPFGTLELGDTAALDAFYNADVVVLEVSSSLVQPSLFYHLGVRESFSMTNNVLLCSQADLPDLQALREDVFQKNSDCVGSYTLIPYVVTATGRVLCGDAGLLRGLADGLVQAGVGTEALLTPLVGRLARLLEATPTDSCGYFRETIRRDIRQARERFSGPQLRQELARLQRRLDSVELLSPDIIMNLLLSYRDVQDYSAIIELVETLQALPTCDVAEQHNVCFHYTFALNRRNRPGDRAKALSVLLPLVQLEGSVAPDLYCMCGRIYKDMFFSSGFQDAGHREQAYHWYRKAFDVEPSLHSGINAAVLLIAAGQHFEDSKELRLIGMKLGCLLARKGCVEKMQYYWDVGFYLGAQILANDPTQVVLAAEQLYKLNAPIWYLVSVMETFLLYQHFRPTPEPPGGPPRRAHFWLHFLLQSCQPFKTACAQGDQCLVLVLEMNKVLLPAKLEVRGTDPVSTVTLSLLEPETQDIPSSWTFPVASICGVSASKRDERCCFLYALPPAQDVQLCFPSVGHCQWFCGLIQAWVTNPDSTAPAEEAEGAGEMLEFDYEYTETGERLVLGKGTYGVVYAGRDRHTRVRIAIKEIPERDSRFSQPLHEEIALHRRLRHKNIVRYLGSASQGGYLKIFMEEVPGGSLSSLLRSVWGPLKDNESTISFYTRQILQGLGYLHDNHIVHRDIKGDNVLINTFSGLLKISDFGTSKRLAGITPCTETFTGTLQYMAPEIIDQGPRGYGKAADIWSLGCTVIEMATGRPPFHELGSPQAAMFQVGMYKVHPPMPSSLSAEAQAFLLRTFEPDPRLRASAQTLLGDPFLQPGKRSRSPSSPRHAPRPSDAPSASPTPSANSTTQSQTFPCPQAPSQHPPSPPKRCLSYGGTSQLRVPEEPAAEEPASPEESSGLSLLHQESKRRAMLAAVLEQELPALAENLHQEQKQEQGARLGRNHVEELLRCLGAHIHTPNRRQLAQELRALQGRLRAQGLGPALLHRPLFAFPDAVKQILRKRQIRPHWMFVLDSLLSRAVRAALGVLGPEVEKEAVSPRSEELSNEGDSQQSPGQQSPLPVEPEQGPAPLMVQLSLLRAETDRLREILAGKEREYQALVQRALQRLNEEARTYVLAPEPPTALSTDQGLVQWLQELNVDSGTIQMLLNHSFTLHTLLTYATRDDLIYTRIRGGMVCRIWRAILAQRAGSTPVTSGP

CDK3/Cyclin E = CDK3/Cyclin E (Homo sapiens, UniProt Q00526); experiment: Inhibition of full length human recombinant CDK3/Cyclin E using histone H1 as substrate incubated for 40 mins in presence of [gamma-33ATP] by radiometric scintillation counting analysis; type: protein-complex assay
CDK2/Cyclin A2 = CDK2/Cyclin A2 (Homo sapiens, UniProt P24941); experiment: Inhibition of full length human recombinant CDK2/Cyclin A using histone H1 as substrate incubated for 40 mins in presence of [gamma-33ATP] by radiometric scintillation counting analysis; type: protein-complex assay
[2] = molecular target: Non-receptor tyrosine-protein kinase TYK2 (Homo sapiens, UniProt P29597); experiment: Inhibition of human recombinant TYK2 (875 to end residues) using GGMEDIYFEFMGG as substrate incubated for 40 mins in presence of [gamma-33ATP] by radiometric scintillation counting analysis
HepG2 [3] = experiment: Induction of cell cycle arrest in human HepG2 cells assessed as accumulation at G2/M phase at 0.5 uM incubated for 24 hrs by propidium iodide staining based flow cytometry (reference value: 33.49%); type: functional
HepG2 [4] = experiment: Induction of cell cycle arrest in human HepG2 cells assessed as accumulation at G0/G1 phase at 2 uM incubated for 24 hrs by propidium iodide staining based flow cytometry (reference value: 38.34%); type: functional
HepG2 [5] = experiment: Induction of cell cycle arrest in human HepG2 cells assessed as accumulation at G2/M phase at 2 uM incubated for 24 hrs by propidium iodide staining based flow cytometry (reference value: 33.49%); type: functional
HepG2 [6] = experiment: Induction of cell cycle arrest in human HepG2 cells assessed as accumulation at G0/G1 phase at 4 uM incubated for 24 hrs by propidium iodide staining based flow cytometry (reference value: 38.34%); type: functional
HepG2 [7] = experiment: Induction of cell cycle arrest in human HepG2 cells assessed as accumulation at G2/M phase at 4 uM incubated for 24 hrs by propidium iodide staining based flow cytometry (reference value: 33.49%); type: functional
HepG2 [8] = experiment: Induction of cell cycle arrest in human HepG2 cells assessed as accumulation at G0/G1 phase at 8 uM incubated for 24 hrs by propidium iodide staining based flow cytometry (reference value: 38.34%); type: functional
HepG2 [9] = experiment: Induction of cell cycle arrest in human HepG2 cells assessed as accumulation at S phase at 8 uM incubated for 24 hrs by propidium iodide staining based flow cytometry (reference value: 33.27%); type: functional
HepG2 [10] = experiment: Induction of cell cycle arrest in human HepG2 cells assessed as accumulation at G2/M phase at 8 uM incubated for 24 hrs by propidium iodide staining based flow cytometry (reference value: 33.49%); type: functional
HepG2 [11] = experiment: Induction of cell cycle arrest in human HepG2 cells assessed as accumulation at S phase at 16 uM incubated for 24 hrs by propidium iodide staining based flow cytometry (reference value: 33.27%); type: functional
HepG2 [12] = experiment: Induction of cell cycle arrest in human HepG2 cells assessed as accumulation at G2/M phase at 16 uM incubated for 24 hrs by propidium iodide staining based flow cytometry (reference value: 33.49%); type: functional

Non-receptor tyrosine-protein kinase TYK2, sequence (P29597 whole entry): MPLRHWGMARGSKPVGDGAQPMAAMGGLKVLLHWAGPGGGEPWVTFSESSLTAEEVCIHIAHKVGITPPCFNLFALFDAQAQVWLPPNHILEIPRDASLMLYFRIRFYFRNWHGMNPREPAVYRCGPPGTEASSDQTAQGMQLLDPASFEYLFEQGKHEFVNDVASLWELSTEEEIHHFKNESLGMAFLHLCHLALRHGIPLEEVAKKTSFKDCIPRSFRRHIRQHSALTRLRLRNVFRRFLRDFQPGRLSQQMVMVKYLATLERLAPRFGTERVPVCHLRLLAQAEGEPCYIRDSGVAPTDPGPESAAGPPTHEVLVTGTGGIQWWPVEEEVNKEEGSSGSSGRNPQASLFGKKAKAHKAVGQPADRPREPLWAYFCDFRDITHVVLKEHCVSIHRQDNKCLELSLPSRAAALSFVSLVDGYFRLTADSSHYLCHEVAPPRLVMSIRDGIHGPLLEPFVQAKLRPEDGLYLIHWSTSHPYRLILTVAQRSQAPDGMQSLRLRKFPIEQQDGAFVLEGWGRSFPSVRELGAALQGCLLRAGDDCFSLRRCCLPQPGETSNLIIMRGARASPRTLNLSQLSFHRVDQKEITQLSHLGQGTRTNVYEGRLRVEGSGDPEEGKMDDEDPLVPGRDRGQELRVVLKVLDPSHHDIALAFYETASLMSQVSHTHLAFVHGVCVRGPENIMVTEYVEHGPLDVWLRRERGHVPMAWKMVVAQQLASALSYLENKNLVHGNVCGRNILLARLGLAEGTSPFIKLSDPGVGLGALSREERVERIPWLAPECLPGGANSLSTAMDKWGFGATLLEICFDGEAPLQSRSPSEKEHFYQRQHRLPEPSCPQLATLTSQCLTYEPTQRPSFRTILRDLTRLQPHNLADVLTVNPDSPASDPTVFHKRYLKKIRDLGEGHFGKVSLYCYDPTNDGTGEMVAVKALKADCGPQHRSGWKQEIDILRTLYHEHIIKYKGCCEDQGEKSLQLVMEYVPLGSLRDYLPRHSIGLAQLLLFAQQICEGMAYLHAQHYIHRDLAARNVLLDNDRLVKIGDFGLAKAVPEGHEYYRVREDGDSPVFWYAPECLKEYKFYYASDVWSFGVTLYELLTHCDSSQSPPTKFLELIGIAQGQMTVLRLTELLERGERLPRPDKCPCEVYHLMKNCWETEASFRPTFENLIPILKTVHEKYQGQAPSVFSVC
CDK3/Cyclin E, sequence (P24864 whole entry): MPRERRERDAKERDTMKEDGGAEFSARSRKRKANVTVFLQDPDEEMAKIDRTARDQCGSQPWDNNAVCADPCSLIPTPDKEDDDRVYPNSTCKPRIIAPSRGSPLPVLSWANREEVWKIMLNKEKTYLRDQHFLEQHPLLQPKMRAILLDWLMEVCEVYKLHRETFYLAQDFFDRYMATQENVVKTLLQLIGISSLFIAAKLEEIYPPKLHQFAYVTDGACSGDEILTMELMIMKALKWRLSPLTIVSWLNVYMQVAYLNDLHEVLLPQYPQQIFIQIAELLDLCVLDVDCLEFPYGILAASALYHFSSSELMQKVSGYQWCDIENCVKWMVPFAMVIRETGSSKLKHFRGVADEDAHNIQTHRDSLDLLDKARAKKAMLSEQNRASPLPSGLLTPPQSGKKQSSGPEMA
CDK3/Cyclin E, sequence (Q00526 whole entry): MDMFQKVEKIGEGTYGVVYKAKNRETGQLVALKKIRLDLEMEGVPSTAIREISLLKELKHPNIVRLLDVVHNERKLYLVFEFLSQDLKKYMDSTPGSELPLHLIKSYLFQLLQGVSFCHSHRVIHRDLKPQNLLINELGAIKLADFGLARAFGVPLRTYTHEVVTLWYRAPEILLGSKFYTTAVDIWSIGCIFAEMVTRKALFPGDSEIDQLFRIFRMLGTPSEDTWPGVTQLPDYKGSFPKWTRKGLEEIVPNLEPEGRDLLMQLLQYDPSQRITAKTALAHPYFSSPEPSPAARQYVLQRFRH

Compound: C[C@H](CO)n1cnnc1-c1cccc(NC(=O)Nc2cc3ccccn3n2)n1
- IC50 [1]: 5.29 µM
- IC50 (CDK3/Cyclin E): 117 nM
- IC50 (CDK2/Cyclin A2): 352 nM
- IC50 [2]: 1690 nM
- Activity (HepG2 [3]): 27.33%
- Activity (HepG2 [4]): 63.79%
- Activity (HepG2 [5]): 34.32%
- Activity (HepG2 [6]): 66.33%
- Activity (HepG2 [7]): 34.25%
- Activity (HepG2 [8]): 66.65%
- Activity (HepG2 [9]): 8.95%
- Activity (HepG2 [10]): 35.02%
- Activity (HepG2 [11]): 9.63%
- Activity (HepG2 [12]): 32.64%
